Results reported in patent US10906946B2, “Thrombin inhibitors” (priority 2015, dated 2021).
“Also recorded” adds a separate entry of the source. Ends that are not written are not given here. Peptide text beside a SMILES is read from it.

Key:
[1] = molecular target: T1, human α-thrombin (Homo sapiens, UniProt P00734); assay: Thrombin amidolytic activity assay with chromogenic substrate S2238; assay type: biochemical; details: for Hill slope of thrombin amidolytic inhibition: 0 min pre-incubation where stated
T1 construct: residues in the termini of the light chain; purchased Chemo-Sero-Therapeutic Research Institute (Kaketsuken, Japan), as a gift, not bought
Protocol: Thrombin amidolytic activity assays for all peptides were performed in 96-wells microtiter plates in 50 mM Tris buffer (pH 7.4) containing 100 mM NaCl and 1 mg/ml bovine serum albumin. […] The rates of formation of p-nitroaniline were followed by measuring the absorbance at 405 nm for 10 min with a Tecan InfinitePro M200 microplate reader from Tecan (Männedorf, Switzerland). Dose-response curves were fitted using the GraphPad Prizm software (San Diego, Calif., USA) to calculate IC50 values and Hill coefficients. To measure the inhibitory constants, different concentrations of S2238 were used and the residual velocities were determined using the Morrison's tight binding equation. Inhibition of thrombin fibrinogenolytic activity of peptides were tested by measuring absorbance at 650 nm using a Sunrise microplate reader from Tecan (Männedorf, Switzerland) as described previously [Koh C Y, et al., J Biol Chem 282: 29101-13 (2007)]. The selectivity of avathrin was examined against 13 serine proteases (FIG. 5). Effects of avathrin on the amidolytic activities of these serine proteases were determined using respective chromogenic substrates. […] Avathrin (150 μM) was incubated with thrombin (5 μM), in 50 mM Tris buffer (pH 7.4) containing 150 mM NaCl and 1 mg/ml BSA. After different incubation times, reactions were quenched with 1% TFA (pH 1.8) and loaded onto a Jupiter Proteo column (4 μm, 90 Å, 100×1.0 mm) attached to a Dionex nano-HPLC system from Thermo Fisher Scientific (Waltham, Mass., USA) and eluted using an acetonitrile gradient with 0.05% TFA and 99.95% MilliQ water as eluent A and 0.05% TFA, 19.95% MilliQ water and 80% ACN as eluent B. Masses of all peaks were measured to identify cleavage products, which were subsequently quantified by integrating the peaks and calculating the area under the curves. To measure the effect of different pre-incubation times on the thrombin inhibitory activity, amidolytic assays were performed for various incubation times (up to 36 h).

[2] = molecular target: T2, thrombin (Homo sapiens, UniProt P00734); assay: Inhibition of thrombin fibrinogenolytic activity (fibrinogen clotting time); assay type: biochemical
T2 construct: residues in the termini of the light chain; and in the autolysis loop and C-terminus of the heavy chain; purchased Chemo-Sero-Therapeutic Research Institute (Kaketsuken, Japan), as a gift, not bought
Protocol: Thrombin amidolytic activity assays for all peptides were performed in 96-wells microtiter plates in 50 mM Tris buffer (pH 7.4) containing 100 mM NaCl and 1 mg/ml bovine serum albumin. Typically, 100 μl of peptide and 100 μl of thrombin were pre-incubated for different durations before 100 μl of S2238 was added to the reaction wells. The rates of formation of p-nitroaniline were followed by measuring the absorbance at 405 nm for 10 min with a Tecan InfinitePro M200 microplate reader from Tecan (Männedorf, Switzerland). Dose-response curves were fitted using the GraphPad Prizm software (San Diego, Calif., USA) to calculate IC50 values and Hill coefficients. To measure the inhibitory constants, different concentrations of S2238 were used and the residual velocities were determined using the Morrison's tight binding equation. Inhibition of thrombin fibrinogenolytic activity of peptides were tested by measuring absorbance at 650 nm using a Sunrise microplate reader from Tecan (Männedorf, Switzerland) as described previously [Koh C Y, et al., J Biol Chem 282: 29101-13 (2007)]. The selectivity of avathrin was examined against 13 serine proteases (FIG. 5). Effects of avathrin on the amidolytic activities of these serine proteases were determined using respective chromogenic substrates. Cleavage of avathrin by thrombin. Avathrin (150 μM) was incubated with thrombin (5 μM), in 50 mM Tris buffer (pH 7.4) containing 150 mM NaCl and 1 mg/ml BSA. After different incubation times, reactions were quenched with 1% TFA (pH 1.8) and loaded onto a Jupiter Proteo column (4 μm, 90 Å, 100×1.0 mm) attached to a Dionex nano-HPLC system from Thermo Fisher Scientific (Waltham, Mass., USA) and eluted using an acetonitrile gradient with 0.05% TFA and 99.95% MilliQ water as eluent A and 0.05% TFA, 19.95% MilliQ water and 80% ACN as eluent B. Masses of all peaks were measured to identify cleavage products, which were subsequently quantified by integrating the peaks and calculating the area under the curves. To measure the effect of different pre-incubation times on the thrombin inhibitory activity, amidolytic assays were performed for various incubation times (up to 36 h).

[3] = system: platelets (ADP-induced platelet aggregation); assay: Preservation of platelet function in blood tubes (Multiplate, ADP-induced platelet aggregation); assay type: cell-based, human (healthy volunteers); details: control tubes (0.109M citrate; >15 μg/ml hirudin), ADP agonist
Protocol: Individual peptides are dissolved in phosphate buffered saline to prepare 10× peptide solutions (ie. concentrations of peptides are 10 times higher than the final concentrations at which they are to be tested). 0.3 ml of the 10× peptide solutions are placed in blood tubes without any additives. Blood was drawn from healthy volunteers using syringes and immediately transferred to a 50 ml conical centrifuge tube (Falcon tube) before pipetting 2.7 ml of the blood into blood tubes with peptide solutions. Final concentrations of peptides are as stated in Table 5 and 6.
Blood tubes with various peptides at different concentrations were left standing at room temperature until tested at designated times. At different time points, tubes were inverted several times and blood samples were taken out for platelet aggregation tests using a Multiplate® Platelet aggregometer with adenosine diphosphate (ADP) as agonist according to manufacturer's recommended protocols.

[4] = IC50 of inhibition of thrombin amidolytic activity, thrombin 0.81 nM, S2238 100 μM, without pre-incubation (0 min) where stated
[5] = inhibitory constant Ki for thrombin, thrombin 0.81 nM, various S2238 concentrations
[6] = IC50 (nM), Table 4, members of variegin family

Molecule: GLGGDFEEIPSDEIIE [GL16]
- effect on thrombin amidolytic activity ([1]; 3-300 μM): did not inhibit amidolytic activity even at 300 μM; also recorded: unable to inhibit thrombin amidolytic activity
- Hill Slope ([1]; Table 2): N. I.
- IC50(nM) ([1]; Table 2): N. I.*
- Ki(nM) ([1]; Table 2): N. I.
- activation of thrombin amidolytic activity ([1]; high concentrations, up to 300 μM): 5-10%
- effect on fibrinogen clotting time / thrombin fibrinogenolytic activity [2]: inhibited the fibrinogenolytic activity; also recorded: prolonged fibrinogen clotting times in a dose dependent manner

Molecule: CC[C@H](C)[C@H](N)C(=O)N[C@@H](CO)C(=O)N[C@@H](CCCCN)C(=O)N[C@@H](CCC(N)=O)C(=O)NCC(=O)N[C@@H](CC(C)C)C(=O)NCC(=O)NCC(=O)N[C@@H](CC(=O)O)C(=O)N[C@@H](Cc1ccccc1)C(=O)N[C@@H](CCC(=O)O)C(=O)N[C@@H](CCC(=O)O)C(=O)N[C@H](C(=O)N1CCC[C@H]1C(=O)N[C@@H](CO)C(=O)N[C@@H](CC(=O)O)C(=O)N[C@@H](CCC(=O)O)C(=O)N[C@H](C(=O)N[C@H](C(=O)N[C@@H](CCC(=O)O)C(=O)O)[C@@H](C)CC)[C@@H](C)CC)[C@@H](C)CC [IS20] (H-ISKQGLGGDFEEIPSDEIIE-OH; N-terminus and C-terminus assumed)
- Hill slope of thrombin amidolytic inhibition [1]: 0.86±0.02
- Hill slope of thrombin amidolytic inhibition, 10 min pre-incubation [1]: 0.87±0.01
- IC50 [1, 4]: 12.4 ± 0.32 nM
- Ki ([1]; Ki(nM), Table 2): 5.76 ± 0.23 nM
- Hill Slope ([1]; Table 2): 0.86 ± 0.02
- effect on fibrinogen clotting time / thrombin fibrinogenolytic activity [2]: inhibited the fibrinogenolytic activity of thrombin in a dose-dependent manner; also recorded: prolonged fibrinogen clotting times in a dose dependent manner

Molecule: CC[C@H](C)[C@H](NC(=O)[C@H](CCCCN)NC(=O)[C@@H]1CCCN1C(=O)[C@@H](NC(=O)[C@H](C)NC(=O)[C@@H](NC(=O)[C@@H](N)CCC(N)=O)[C@@H](C)O)C(C)C)C(=O)N[C@@H](CO)C(=O)N[C@@H](CCCCN)C(=O)N[C@@H](CCC(N)=O)C(=O)NCC(=O)N[C@@H](CC(C)C)C(=O)NCC(=O)NCC(=O)N[C@@H](CC(=O)O)C(=O)N[C@@H](Cc1ccccc1)C(=O)N[C@@H](CCC(=O)O)C(=O)N[C@@H](CCC(=O)O)C(=O)N[C@H](C(=O)N1CCC[C@H]1C(=O)N[C@@H](CO)C(=O)N[C@@H](CC(=O)O)C(=O)N[C@@H](CCC(=O)O)C(=O)N[C@H](C(=O)N[C@H](C(=O)N[C@@H](CCC(=O)O)C(=O)O)[C@@H](C)CC)[C@@H](C)CC)[C@@H](C)CC [QT26] (H-QTAVPKISKQGLGGDFEEIPSDEIIE-OH; N-terminus and C-terminus assumed)
- Hill slope of thrombin amidolytic inhibition [1]: 0.88±0.03
- Hill slope of thrombin amidolytic inhibition, 10 min pre-incubation [1]: 0.92±0.03
- IC50 [1, 4]: 8.94 ± 0.64 nM
- Hill Slope ([1]; Table 2): 0.88 ± 0.03
- Ki [1, 5]: 0.7603 ± 0.00091 nM
- effect on fibrinogen clotting time / thrombin fibrinogenolytic activity [2]: inhibited

Molecule: O=C(O)CC(O)(CC(=O)O)C(=O)O [citrate, reference compound]
- Multiplate AUC (U) ([3]; 1.5 h): 37 U
- Multiplate AUC (U) ([3]; 4 h): 32.2 U
- Multiplate AUC (U) ([3]; 24 h): 12.9 U
- Multiplate AUC (U) ([3]; 48 h): 1.4 U
- Multiplate AUC (U) ([3]; 72 h): 0.7 U

Molecule: CC[C@H](C)[C@H](NC(=O)[C@H](C)NC(=O)[C@H](CC(=O)O)NC(=O)[C@H](CC(=O)O)NC(=O)[C@@H]1CCCN1C(=O)[C@@H](NC(=O)[C@H](CCC(=O)O)NC(=O)[C@H](CCC(=O)O)NC(=O)[C@H](Cc1ccccc1)NC(=O)[C@H](CC(=O)O)NC(=O)CNC(=O)[C@@H]1CCCN1C(=O)[C@@H]1CCCN1C(=O)[C@H](C)NC(=O)[C@@H](NC(=O)[C@H](CO)NC(=O)[C@H](Cc1ccc(O)cc1)NC(=O)[C@H](CCSC)NC(=O)[C@H](CCCCN)NC(=O)[C@@H]1CCCN1C(=O)[C@@H](NC(=O)[C@H](C)NC(=O)[C@@H](NC(=O)[C@H](CC(=O)O)NC(=O)CNC(=O)[C@H](CCC(N)=O)NC(=O)[C@H](CC(=O)O)NC(=O)[C@@H](N)CO)C(C)C)[C@@H](C)CC)[C@@H](C)O)[C@@H](C)CC)C(=O)N[C@@H](CCC(=O)O)C(=O)N[C@@H](CCC(=O)O)C(=O)O [UV003] (H-SDQGDVAIPKMYSTAPPGDFEEIPDDAIEE-OH)
- IC50 [1, 4]: 0.6 ± 0.2 nM
- Ki [1, 5]: 0.00421 ± 0.00096 nM

Molecule: TGSDDDDEYDMYESDGDSNEGNDNDEFETAVPRLPNPNSGRDSEHIPMPVN [Hyalomma marginatum rufipes]
- IC50 [1, 6]: 32.5 ± 3.94 nM
- Ki [1, 5]: 6.13 ± 0.39 nM

Molecule: CC[C@H](C)[C@H](NC(=O)[C@H](CCCCN)NC(=O)[C@@H]1CCCN1C(=O)[C@@H](NC(=O)[C@H](C)NC(=O)[C@@H](NC(=O)[C@H](CCC(N)=O)NC(=O)[C@H](Cc1c[nH]cn1)NC(=O)CNC(=O)CNC(=O)[C@@H](N)CO)[C@@H](C)O)C(C)C)C(=O)N[C@@H](CO)C(=O)N[C@@H](CCCCN)C(=O)N[C@@H](CCC(N)=O)C(=O)NCC(=O)N1CCC[C@H]1C(=O)N1CCC[C@H]1C(=O)NCC(=O)N[C@@H](CC(=O)O)C(=O)N[C@@H](Cc1ccccc1)C(=O)N[C@@H](CCC(=O)O)C(=O)N[C@@H](CCC(=O)O)C(=O)N[C@H](C(=O)N1CCC[C@H]1C(=O)N[C@@H](CO)C(=O)N[C@@H](CC(=O)O)C(=O)N[C@@H](CCC(=O)O)C(=O)N[C@H](C(=O)N[C@H](C(=O)N[C@@H](CCC(=O)O)C(=O)O)[C@@H](C)CC)[C@@H](C)CC)[C@@H](C)CC [L16P, G17P] (H-SGGHQTAVPKISKQGPPGDFEEIPSDEIIE-OH)
- fold drop in potency compared with avathrin [1]: > 25 fold
- Hill slope of thrombin amidolytic inhibition [1]: 0.54±0.02
- IC50 [1, 4]: 181 ± 3.76 nM
- Hill Slope ([1]; Table 2): 0.54 ± 0.02

Molecule: hirudin [reference compound]
- Multiplate AUC (U) ([3]; 1.5 h): 69.5 U
- Multiplate AUC (U) ([3]; 4 h): 50.2 U
- Multiplate AUC (U) ([3]; 24 h): 36.2 U
- Multiplate AUC (U) ([3]; 48 h): 29.1 U
- Multiplate AUC (U) ([3]; 72 h): 26.9 U

Molecule: ELESGDEDSEGGDSQSSPTESAAPRLHQREGGGGDFENVEYDQDQK [Amblyomma maculatum]
- IC50 [1, 6]: 130 ± 1.74 nM
